Source: PubChem BioAssay AID1963828 (Molecular Pharmacology Branch, DTP, NCI, 2024)

Test system: 991263-137-R1-J2-PDC complex spheroid viability
Assay: Anticancer human tumor 991263-137-R1-J2-PDC patient-derived colon adenocarcinoma cell line growth inhibition [POLQ]
Conditions: for IC50: curve of first compound; for viability, T/C: stronger effect = lower value
Summary of the method: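 Growth inhibition in 3D: complex spheroids (tumor PDC, HUVEC, MSC) treated with POLQ inhibitor combinations; where Cmax unknown, highest tested concentration 10 microM, except SN-38 at 1 microM.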
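Further: spheroids exposed to compounds for 7 days before readout.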
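Wherever viability, T/C is given: 100% = DMSO vehicle control viability.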

In the case of `CC(=O)O[C@H]1C(=O)[C@@]2(C)[C@H]([C@H](OC(=O)c3ccccc3)[C@]3(O)C[C@H](OC(=O)[C@H](O)[C@@H](NC(=O)c4ccccc4)c4ccccc4)C(C)=C1C3(C)C)[C@]1(OC(C)=O)CO[C@@H]1C[C@@H]2O` + Nc1ccc(C#CCN(C(=O)Cc2ncc(C(F)(F)F)cc2C(F)(F)F)c2ccc(F)cc2)nn1, the IC50 (second compound 0.0316 µM) is reported as over 3000 nM, the IC50 (second compound 0.1 µM) is reported as over 3000 nM and the IC50 (second compound 0.316 µM) is reported as 2530 nM. It also gave an IC50 (second compound 1 µM) of over 3000 nM, an IC50 (second compound 3.16 µM) of over 3000 nM and an IC50 (second compound 10 µM) of over 3000 nM. It also gave a viability, T/C (second compound 0.0316 µM, first compound 0.00949 µM) of 98.6%, a viability, T/C (second compound 0.0316 µM, first compound 0.03 µM) of 89.7% and a viability, T/C (second compound 0.0316 µM, first compound 0.0949 µM) of 84.9%. For the same molecule, the viability, T/C (second compound 0.0316 µM, first compound 0.3 µM) was 77.8%, the viability, T/C (second compound 0.0316 µM, first compound 0.949 µM) was 55.3% and the viability, T/C (second compound 0.0316 µM, first compound 3 µM) was 56.6%. It also gave a viability, T/C (second compound 0.1 µM, first compound 0.00949 µM) of 93.9%, a viability, T/C (second compound 0.1 µM, first compound 0.03 µM) of 96.5% and a viability, T/C (second compound 0.1 µM, first compound 0.0949 µM) of 87.9%. The viability, T/C (second compound 0.1 µM, first compound 0.3 µM) was 85.8%, the viability, T/C (second compound 0.1 µM, first compound 0.949 µM) was 55.1% and the viability, T/C (second compound 0.1 µM, first compound 3 µM) was 50.9%. The viability, T/C (second compound 0.316 µM, first compound 0.00949 µM) was 93.9%, the viability, T/C (second compound 0.316 µM, first compound 0.03 µM) was 95.6% and the viability, T/C (second compound 0.316 µM, first compound 0.0949 µM) was 85.3%. The viability, T/C (second compound 0.316 µM, first compound 0.3 µM) was 80%, the viability, T/C (second compound 0.316 µM, first compound 0.949 µM) was 58% and the viability, T/C (second compound 0.316 µM, first compound 3 µM) was 48.9%. It also gave a viability, T/C (second compound 1 µM, first compound 0.00949 µM) of 92.5%, a viability, T/C (second compound 1 µM, first compound 0.03 µM) of 96.9% and a viability, T/C (second compound 1 µM, first compound 0.0949 µM) of 98%. It also gave a viability, T/C (second compound 1 µM, first compound 0.3 µM) of 66.4%, a viability, T/C (second compound 1 µM, first compound 0.949 µM) of 57.7% and a viability, T/C (second compound 1 µM, first compound 3 µM) of 51.7%. It also gave a viability, T/C (second compound 3.16 µM, first compound 0.00949 µM) of 90.2%, a viability, T/C (second compound 3.16 µM, first compound 0.03 µM) of 87.1% and a viability, T/C (second compound 3.16 µM, first compound 0.0949 µM) of 68.7%. It also gave a viability, T/C (second compound 3.16 µM, first compound 0.3 µM) of 60.6%, a viability, T/C (second compound 3.16 µM, first compound 0.949 µM) of 51.4% and a viability, T/C (second compound 3.16 µM, first compound 3 µM) of 50.6%. The viability, T/C (second compound 10 µM, first compound 0.00949 µM) was 84.6%, the viability, T/C (second compound 10 µM, first compound 0.03 µM) was 72% and the viability, T/C (second compound 10 µM, first compound 0.0949 µM) was 53.8%. For the same molecule, the viability, T/C (second compound 10 µM, first compound 0.3 µM) was 58.1%, the viability, T/C (second compound 10 µM, first compound 0.949 µM) was 49.5% and the viability, T/C (second compound 10 µM, first compound 3 µM) was 50.2%.
`CC[C@@]1(O)C(=O)OCc2c1cc1n(c2=O)Cc2cc3c(CN(C)C)c(O)ccc3nc2-1` + Nc1ccc(C#CCN(C(=O)Cc2ncc(C(F)(F)F)cc2C(F)(F)F)c2ccc(F)cc2)nn1 gave an IC50 (second compound 0.0316 µM) of over 100 nM, an IC50 (second compound 0.1 µM) of over 100 nM and an IC50 (second compound 0.316 µM) of over 100 nM. For the same molecule, the IC50 (second compound 1 µM) was over 100 nM, the IC50 (second compound 3.16 µM) was over 100 nM and the IC50 (second compound 10 µM) was over 100 nM. It also gave a viability, T/C (second compound 0.0316 µM, first compound 0.000316 µM) of 94.8%, a viability, T/C (second compound 0.0316 µM, first compound 0.001 µM) of 92.6% and a viability, T/C (second compound 0.0316 µM, first compound 0.00316 µM) of 92.4%. It also gave a viability, T/C (second compound 0.0316 µM, first compound 0.01 µM) of 101%, a viability, T/C (second compound 0.0316 µM, first compound 0.0316 µM) of 99.8% and a viability, T/C (second compound 0.0316 µM, first compound 0.1 µM) of 80.2%. The viability, T/C (second compound 0.1 µM, first compound 0.000316 µM) was 111%, the viability, T/C (second compound 0.1 µM, first compound 0.001 µM) was 102% and the viability, T/C (second compound 0.1 µM, first compound 0.00316 µM) was 101%. The viability, T/C (second compound 0.1 µM, first compound 0.01 µM) was 94.6%, the viability, T/C (second compound 0.1 µM, first compound 0.0316 µM) was 101% and the viability, T/C (second compound 0.1 µM, first compound 0.1 µM) was 79.8%. It also gave a viability, T/C (second compound 0.316 µM, first compound 0.000316 µM) of 108%, a viability, T/C (second compound 0.316 µM, first compound 0.001 µM) of 109% and a viability, T/C (second compound 0.316 µM, first compound 0.00316 µM) of 95.4%. It also gave a viability, T/C (second compound 0.316 µM, first compound 0.01 µM) of 107%, a viability, T/C (second compound 0.316 µM, first compound 0.0316 µM) of 104% and a viability, T/C (second compound 0.316 µM, first compound 0.1 µM) of 76.8%. It also gave a viability, T/C (second compound 1 µM, first compound 0.000316 µM) of 104%, a viability, T/C (second compound 1 µM, first compound 0.001 µM) of 106% and a viability, T/C (second compound 1 µM, first compound 0.00316 µM) of 101%. The viability, T/C (second compound 1 µM, first compound 0.01 µM) was 101%, the viability, T/C (second compound 1 µM, first compound 0.0316 µM) was 101% and the viability, T/C (second compound 1 µM, first compound 0.1 µM) was 84.3%. For the same molecule, the viability, T/C (second compound 3.16 µM, first compound 0.000316 µM) was 102%, the viability, T/C (second compound 3.16 µM, first compound 0.001 µM) was 94.9% and the viability, T/C (second compound 3.16 µM, first compound 0.00316 µM) was 105%. The viability, T/C (second compound 3.16 µM, first compound 0.01 µM) was 93.1%, the viability, T/C (second compound 3.16 µM, first compound 0.0316 µM) was 93.6% and the viability, T/C (second compound 3.16 µM, first compound 0.1 µM) was 65.6%. It also gave a viability, T/C (second compound 10 µM, first compound 0.000316 µM) of 102%, a viability, T/C (second compound 10 µM, first compound 0.001 µM) of 112% and a viability, T/C (second compound 10 µM, first compound 0.00316 µM) of 107%. For the same molecule, the viability, T/C (second compound 10 µM, first compound 0.01 µM) was 88.1%, the viability, T/C (second compound 10 µM, first compound 0.0316 µM) was 91.1% and the viability, T/C (second compound 10 µM, first compound 0.1 µM) was 66.6%.
